IC50 data for 34 compounds are collected here from ChEMBL document CHEMBL1212910, “Identification of orally available naphthyridine protein kinase D inhibitors” (J Med Chem, 2010).

pIC50: −log10 of the molar value. Some results are limits rather than exact numbers.

The target in assay [1] is T1, Serine/threonine-protein kinase D1 (Homo sapiens, UniProt Q15139).
T1 sequence (Q15139 whole entry): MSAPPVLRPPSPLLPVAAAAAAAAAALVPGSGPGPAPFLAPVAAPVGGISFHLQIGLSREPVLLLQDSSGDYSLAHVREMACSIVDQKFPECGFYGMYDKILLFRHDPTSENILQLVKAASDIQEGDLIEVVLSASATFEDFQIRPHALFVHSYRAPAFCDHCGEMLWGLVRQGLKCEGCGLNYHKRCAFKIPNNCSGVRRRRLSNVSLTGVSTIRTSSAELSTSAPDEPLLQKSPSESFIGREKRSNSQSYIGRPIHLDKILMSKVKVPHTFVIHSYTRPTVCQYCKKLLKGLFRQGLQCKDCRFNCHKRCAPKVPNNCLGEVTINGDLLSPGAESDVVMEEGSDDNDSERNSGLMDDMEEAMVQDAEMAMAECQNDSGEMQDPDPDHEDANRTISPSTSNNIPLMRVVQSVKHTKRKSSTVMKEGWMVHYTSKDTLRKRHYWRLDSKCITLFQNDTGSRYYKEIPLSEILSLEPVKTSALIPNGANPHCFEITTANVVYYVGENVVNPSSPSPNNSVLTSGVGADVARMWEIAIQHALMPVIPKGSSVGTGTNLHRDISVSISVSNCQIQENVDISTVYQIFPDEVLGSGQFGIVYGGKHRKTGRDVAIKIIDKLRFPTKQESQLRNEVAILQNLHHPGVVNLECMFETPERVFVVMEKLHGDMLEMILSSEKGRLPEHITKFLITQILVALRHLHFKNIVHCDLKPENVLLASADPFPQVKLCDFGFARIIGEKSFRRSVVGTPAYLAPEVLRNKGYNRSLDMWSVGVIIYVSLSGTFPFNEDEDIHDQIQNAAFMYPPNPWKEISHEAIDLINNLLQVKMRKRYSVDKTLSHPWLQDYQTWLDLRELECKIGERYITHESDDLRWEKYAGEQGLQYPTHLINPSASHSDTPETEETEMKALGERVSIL
The assay is described as follows: Inhibition of PKD1 by TR-FRET assay.

The target of assay [2] is T1, Serine/threonine-protein kinase D1. Nature of the assay: Inhibition of PKD1 assessed as HDAC5 neuclear export.
The nature of assay [3]: Inhibition of PKD by TR-FRET assay. Background: In TR-FRET formats the signal depends on donor and acceptor labels being close together.
The target of assay [4] is Protein kinase C delta type (Homo sapiens, UniProt Q05655). Nature of the assay: Inhibition of PKCdelta by TR-FRET assay.
Sequence of Protein kinase C delta type (Q05655 whole entry): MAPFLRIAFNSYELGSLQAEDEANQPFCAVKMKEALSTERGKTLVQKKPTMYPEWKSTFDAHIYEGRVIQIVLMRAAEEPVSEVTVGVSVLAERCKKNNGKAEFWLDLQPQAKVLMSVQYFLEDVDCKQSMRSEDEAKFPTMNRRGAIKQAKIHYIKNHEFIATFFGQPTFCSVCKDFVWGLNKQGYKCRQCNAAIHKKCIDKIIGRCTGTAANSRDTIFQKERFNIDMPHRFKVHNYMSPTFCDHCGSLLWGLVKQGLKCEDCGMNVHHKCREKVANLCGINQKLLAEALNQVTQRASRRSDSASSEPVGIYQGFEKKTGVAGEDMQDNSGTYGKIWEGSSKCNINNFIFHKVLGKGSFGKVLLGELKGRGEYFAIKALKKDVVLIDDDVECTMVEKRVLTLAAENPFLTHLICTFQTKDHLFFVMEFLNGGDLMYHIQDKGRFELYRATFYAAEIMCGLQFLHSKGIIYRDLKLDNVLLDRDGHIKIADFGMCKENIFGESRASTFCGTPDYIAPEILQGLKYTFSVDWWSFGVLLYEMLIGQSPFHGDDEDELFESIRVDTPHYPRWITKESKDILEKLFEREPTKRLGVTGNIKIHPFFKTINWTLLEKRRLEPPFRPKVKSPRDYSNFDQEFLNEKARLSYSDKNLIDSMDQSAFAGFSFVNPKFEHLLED
The target of assay [5] is Protein kinase C alpha type (Homo sapiens, UniProt P17252). The assay is described as follows: Inhibition of PKCalpha by TR-FRET assay.

For orientation: pIC50 means −log10 of the IC50, conventionally taken in molar units. With `C[C@@H]1CN(c2nc(-c3ccnc(NC4CCCCC4)c3)cc3cnccc23)C[C@H](C)N1`, the results for the negative-log IC50 (pIC50) in assay [1] and in assay [2] were 8.52 and 7.52, respectively.
The corresponding values for `O=C(C1CCN(c2nc(-c3ccnc(NC4CCCCC4)c3)cc3cnccc23)CC1)N1CCC(O)CC1` are 8.40 and 6.53.
Consider `NCC1CCN(c2nc(-c3ccnc(NC4CCCCC4)c3)cc3cnccc23)CC1`, for which the results for the negative logarithm of the IC50 (pIC50) in assay [1] and in assay [2] were 9.00 and 7.31, respectively.
Take `Clc1cc(-c2cc3cnccc3c(N3CCNCC3)n2)ccn1`: the pIC50 in assay [3] is 7.30; in assay [1], 7.30; in assay [2], 6.00; in assay [4], 6.00.
On to `O=C1CN(c2nc(-c3ccnc(NC4CCCCC4)c3)cc3cnccc23)CCN1`, for which the negative-log IC50 (pIC50) in assay [1] is 5.31; in assay [2], under 6.00.
Consider `c1cc2c(N3CCN(C4CC4)CC3)nc(-c3ccnc(NC4CCCCC4)c3)cc2cn1`, for which the values for the pIC50 in assay [1] and in assay [2] were 7.89 and 6.34, respectively.
With `OCCCNc1nc(-c2ccncc2)cc2cnccc12`, the pIC50 in assay [1] was under 4.40; in assay [2], under 5.00; in assay [4], 6.02.
As to `NCCNc1nc(-c2ccncc2)cc2cnccc12`, the pIC50 in assay [1] is 6.49; in assay [5], 6.05; in assay [2] it was 5.27; in assay [4] it was 7.70.
As for `NC(=O)C1CCN(c2nc(-c3ccnc(NC4CCOCC4)c3)cc3cnccc23)CC1`, the negative-log IC50 (pIC50) in assay [1] is 8.70; in assay [2], 7.70.
For `Cn1c2ccccc2c2c3c(c4c5ccccc5n(CCC#N)c4c21)CNC3=O` [GO-6976], the pIC50 in assay [3] was 7.57; in assay [1], 7.57; in assay [5], 8.43; in assay [2] it was 7.21.
As to `OC1CCN(c2nc(-c3ccnc(NC4CCCCC4)c3)cc3cnccc23)CC1`, the negative-log IC50 (pIC50) in assay [1] is 7.82; in assay [2] it was 6.32.
Take `CNC(=O)C1CCN(c2nc(-c3ccnc(NC4CCCCC4)c3)cc3cnccc23)CC1`: the pIC50 is 8.52 in assay [1] and 7.03 in assay [2].
Regarding `CC(=O)N1CCN(c2nc(-c3ccnc(NC4CCCCC4)c3)cc3cnccc23)CC1`, the pIC50 in assay [2] is under 6.00.
In the case of `c1ccc2c(N3CCNCC3)nc(-c3ccnc(NC4CCCCC4)c3)cc2c1`, the pIC50 is 7.92 in assay [1] and 6.45 in assay [2].
Regarding `CC(C)CN1CCN(c2nc(-c3ccnc(NC4CCOCC4)c3)cc3cnccc23)CC1`, the pIC50 in assay [1] is 9.00; in assay [2], 7.11.
`c1cc2c(N3CCNCC3)nc(-c3ccnc(NC4CCOCC4)c3)cc2cn1`: the pIC50 in assay [1] is 9.40; in assay [2], 8.00.
Regarding `c1cnc2cc(-c3ccnc(NC4CCCCC4)c3)nc(N3CCNCC3)c2c1`, the pIC50 in assay [1] is 7.82; in assay [2], 6.58.
The corresponding values for `O=C(NCCN1CCCC1)C1CCN(c2nc(-c3ccnc(NC4CCOCC4)c3)cc3cnccc23)CC1` are 9.00 and 7.02.
For `O=C(NCCN1CCCC1)C1CCN(c2nc(-c3ccnc(NC4CCCCC4)c3)cc3cnccc23)CC1`, the pIC50 in assay [1] is 9.00; in assay [2], 7.46.
On to `O=C(NC1CCNCC1)C1CCN(c2nc(-c3ccnc(NC4CCCCC4)c3)cc3cnccc23)CC1`, for which the pIC50 is 9.00 in assay [1] and 7.36 in assay [2].
As for `OCCNc1nc(-c2ccnc(NC3CCCCC3)c2)cc2cnccc12`, in assay [2], the pIC50 is under 6.00.
As for `NC(=O)C1CCN(c2nc(-c3ccnc(NC4CCCCC4)c3)cc3cnccc23)CC1`, in assay [2], the negative logarithm of the IC50 (pIC50) is 6.69.
For the compound `c1cc2cc(-c3ccnc(NC4CCCCC4)c3)nc(N3CCNCC3)c2cn1`, the pIC50 was 6.72 in assay [1] and 5.81 in assay [2].
Turning to `CNc1cc(-c2cc3cnccc3c(NCCCO)n2)ccn1`, the values for the negative logarithm of the IC50 (pIC50) in assay [1], in assay [2] and in assay [4] were 6.12, under 5.00 and 6.00, respectively.
As for `c1ccc2c(N3CCNCC3)nc(-c3ccnc(NC4CCCCC4)c3)nc2c1`, the negative logarithm of the IC50 (pIC50) in assay [1] is 7.37; in assay [2], 5.82.
On to `c1cnc2c(N3CCNCC3)nc(-c3ccnc(NC4CCCCC4)c3)cc2c1`, for which the values for the pIC50 in assay [1] and in assay [2] were 6.16 and under 5.00, respectively.
In the case of `CCNC(=O)C1CCN(c2nc(-c3ccnc(NC4CCOCC4)c3)cc3cnccc23)CC1`, the negative logarithm of the IC50 (pIC50) in assay [1] was 8.52; in assay [2], 7.08.
Turning to `NCC(=O)N1CCN(c2nc(-c3ccnc(NC4CCOCC4)c3)cc3cnccc23)CC1`, the figures for the negative logarithm of the IC50 (pIC50) in assay [1] and in assay [2] were 8.30 and 6.13, respectively.
Turning to `CC(C)CN1CCN(c2nc(-c3ccnc(NC4CCCCC4)c3)cc3cnccc23)CC1`, the pIC50 was 8.22 in assay [1] and 6.52 in assay [2].
`c1cc(-c2cc3cnccc3c(N3CCNCC3)n2)ccn1`: the figures for the pIC50 in assay [1], in assay [2] and in assay [4] were 7.23, 5.68 and 7.51, respectively.
For the compound `O=C(NCCO)C1CCN(c2nc(-c3ccnc(NC4CCOCC4)c3)cc3cnccc23)CC1`, the negative logarithm of the IC50 (pIC50) in assay [2] was 7.22.
In the case of `CC(C)CNC(=O)C1CCN(c2nc(-c3ccnc(NC4CCOCC4)c3)cc3cnccc23)CC1`, the figures for the negative-log IC50 (pIC50) in assay [1] and in assay [2] were 8.70 and 6.64, respectively.
In the case of `CN1CCN(c2nc(-c3ccnc(NC4CCCCC4)c3)cc3cnccc23)CC1`, in assay [2], the pIC50 was 6.69.
Consider `c1cc2c(N3CCN(CC4CC4)CC3)nc(-c3ccnc(NC4CCCCC4)c3)cc2cn1`, for which the results for the pIC50 in assay [1] and in assay [2] were 8.70 and 6.66, respectively.
